Measured values published in PubChem BioAssay (NCI).
Several values for one entry are separate records, joined by “and”; a condition that tells them apart may be missing. Identical values can stand only once.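 All cell lines were grown in 96-well plates and treated with compound for 48 hours. GI50 marks 50% less growth. At the TGI there is no net growth.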

Assays:
Experiment in all cases: NCI anticancer screen, dose series, 48 h; in the data active = GI50 below about 0.43 µM; inactive = the rest
HL-60(TB) leukemia = tested on: HL-60(TB) leukemia
HCT-116 colon = tested on: HCT-116 colon
SN12C renal = tested on: SN12C renal
A498 renal = tested on: A498 renal
MDA-N = tested on: MDA-N
NCI-H522 lung = tested on: NCI-H522 lung
T-47D breast = tested on: T-47D breast
BT-549 breast = tested on: BT-549 breast
ACHN renal = tested on: ACHN renal
K-562 leukemia = tested on: K-562 leukemia
OVCAR-5 ovarian = tested on: OVCAR-5 ovarian
KM12 colon = tested on: KM12 colon
OVCAR-8 ovarian = tested on: OVCAR-8 ovarian
DU-145 prostate = tested on: DU-145 prostate
SW-620 colon = tested on: SW-620 colon
HOP-62 NSCLC = tested on: HOP-62 NSCLC
SF-539 CNS = tested on: SF-539 CNS
COLO 205 colon = tested on: COLO 205 colon
NCI-H226 lung = tested on: NCI-H226 lung
CCRF-CEM leukemia = tested on: CCRF-CEM leukemia
HCC-2998 colon = tested on: HCC-2998 colon
NCI-H23 lung = tested on: NCI-H23 lung
SF-268 CNS = tested on: SF-268 CNS
LOX IMVI melanoma = tested on: LOX IMVI melanoma
MALME-3M melanoma = tested on: MALME-3M melanoma
SK-MEL-28 melanoma = tested on: SK-MEL-28 melanoma
EKVX NSCLC = tested on: EKVX NSCLC
NCI/ADR-RES ovarian = tested on: NCI/ADR-RES ovarian
RPMI-8226 leukemia = tested on: RPMI-8226 leukemia
HS 578T breast = tested on: HS 578T breast
M14 melanoma = tested on: M14 melanoma
A549 NSCLC = tested on: A549 NSCLC
HOP-92 NSCLC = tested on: HOP-92 NSCLC
MDA-MB-435 = tested on: MDA-MB-435
PC-3 prostate = tested on: PC-3 prostate
UACC-62 melanoma = tested on: UACC-62 melanoma
U251 CNS = tested on: U251 CNS
SK-MEL-2 melanoma = tested on: SK-MEL-2 melanoma
TK-10 renal = tested on: TK-10 renal
SR leukemia = tested on: SR leukemia
CAKI-1 renal = tested on: CAKI-1 renal
IGROV1 ovarian = tested on: IGROV1 ovarian
NCI-H460 lung = tested on: NCI-H460 lung
786-0 renal = tested on: 786-0 renal
OVCAR-4 ovarian = tested on: OVCAR-4 ovarian
MCF7 breast = tested on: MCF7 breast
HT29 colon = tested on: HT29 colon
SNB-75 CNS = tested on: SNB-75 CNS
HCT-15 colon = tested on: HCT-15 colon
SK-OV-3 ovarian = tested on: SK-OV-3 ovarian
UACC-257 melanoma = tested on: UACC-257 melanoma
MOLT-4 leukemia = tested on: MOLT-4 leukemia
RXF 393 renal = tested on: RXF 393 renal
OVCAR-3 ovarian = tested on: OVCAR-3 ovarian
SK-MEL-5 melanoma = tested on: SK-MEL-5 melanoma
MDA-MB-231 breast = tested on: MDA-MB-231 breast
UO-31 renal = tested on: UO-31 renal
SF-295 CNS = tested on: SF-295 CNS
SNB-19 CNS = tested on: SNB-19 CNS
DLD-1 colon = tested on: DLD-1 colon
KM20L2 colon = tested on: KM20L2 colon
LXFL 529 NSCLC = tested on: LXFL 529 NSCLC
DMS 114 small cell lung = tested on: DMS 114 small cell lung

Cc1ccc(S(=O)(=O)N2CCNCCN(S(=O)(=O)c3ccc(C)cc3)CCN(S(=O)(=O)c3ccc(C)cc3)CC2)cc1
> 100 µM: TGI (HL-60(TB) leukemia) | TGI (HCT-116 colon) | TGI (SN12C renal) | TGI (A498 renal) | TGI (MDA-N) | TGI (NCI-H522 lung) | TGI (T-47D breast) | TGI (BT-549 breast) | TGI (ACHN renal) | TGI (K-562 leukemia) | TGI (OVCAR-5 ovarian) | TGI (KM12 colon) | TGI (OVCAR-8 ovarian) | TGI (DU-145 prostate) | TGI (SW-620 colon) | TGI (HOP-62 NSCLC) | TGI (SF-539 CNS) | TGI (COLO 205 colon) | TGI (NCI-H226 lung) | TGI (CCRF-CEM leukemia) | TGI (HCC-2998 colon) | TGI (NCI-H23 lung) | TGI (SF-268 CNS) | TGI (LOX IMVI melanoma) | TGI (MALME-3M melanoma) | TGI (SK-MEL-28 melanoma) | TGI (EKVX NSCLC) | TGI (NCI/ADR-RES ovarian) | TGI (RPMI-8226 leukemia) | TGI (HS 578T breast) | TGI (M14 melanoma) | TGI (A549 NSCLC) | TGI (HOP-92 NSCLC) | TGI (MDA-MB-435) | TGI (PC-3 prostate) | TGI (UACC-62 melanoma) | TGI (U251 CNS) | TGI (SK-MEL-2 melanoma) | TGI (TK-10 renal) | TGI (SR leukemia) | TGI (CAKI-1 renal) | TGI (IGROV1 ovarian) | TGI (NCI-H460 lung) | TGI (786-0 renal) | TGI (OVCAR-4 ovarian) | TGI (MCF7 breast) | TGI (HT29 colon) | TGI (SNB-75 CNS) | TGI (HCT-15 colon) | TGI (SK-OV-3 ovarian) | TGI (UACC-257 melanoma) | TGI (MOLT-4 leukemia) | TGI (RXF 393 renal) | TGI (OVCAR-3 ovarian) | TGI (SK-MEL-5 melanoma) | TGI (MDA-MB-231 breast) | TGI (UO-31 renal) | TGI (SF-295 CNS) | TGI (SNB-19 CNS)

CC1C(=O)C(C)C(c2ccccc2)N(C)C1c1ccccc1 (configuration not stated)
30.8 µM and > 100 µM: TGI (HCT-116 colon)
54.3 µM: TGI (RPMI-8226 leukemia)
99.7 µM and > 100 µM: TGI (DMS 114 small cell lung)
52.5 µM and > 100 µM: TGI (NCI-H522 lung)
> 100 µM: TGI (K-562 leukemia) | TGI (OVCAR-5 ovarian) | TGI (DLD-1 colon) | TGI (KM20L2 colon) | TGI (LXFL 529 NSCLC)
91.4 µM and > 100 µM: TGI (HT29 colon)
57.7 µM and > 100 µM: TGI (MOLT-4 leukemia)
31.4 µM and > 100 µM: TGI (LOX IMVI melanoma)
45.5 µM and > 100 µM: TGI (HL-60(TB) leukemia)
93.9 µM and > 100 µM: TGI (SF-295 CNS)
67.7 µM and > 100 µM: TGI (KM12 colon)
48.2 µM and > 100 µM: TGI (SR leukemia)
inactive: GI50 (HCT-116 colon) 15.7 µM and 40.3 µM | GI50 (NCI-H522 lung) 21.6 µM and 63 µM | GI50 (K-562 leukemia) 33.2 µM and 73.4 µM | GI50 (KM12 colon) 23.7 µM and 90.3 µM | GI50 (LOX IMVI melanoma) 15.8 µM and 86.2 µM | GI50 (DLD-1 colon) 26.2 µM and 85.4 µM | GI50 (KM20L2 colon) 32.8 µM and 85.8 µM | GI50 (LXFL 529 NSCLC) 42.6 µM and 97.9 µM | GI50 (HCT-15 colon) 23.6 µM and 61.1 µM | GI50 (DMS 114 small cell lung) 30 µM and 75.1 µM | GI50 (SF-295 CNS) 28 µM and 87.4 µM
81.8 µM and > 100 µM: TGI (HCT-15 colon)
